Among the data in ChEMBL document CHEMBL4334438, “Discovery of novel glycogen synthase kinase-3α inhibitors: Structure-based virtual screening, preliminary SAR and biological evaluation for treatment of acute myeloid leukemia” (Eur J Med Chem, 2019) are Activity values, retold here.

Experiment [1] has as its target CDK4/Cyclin D3 (Homo sapiens) (UniProt P11802+P30281). Nature of the experiment: Inhibition of recombinant full length human CDK4/CyclinD3 assessed as residual activity at 1 uM using Rb fragment as substrate incubated for 40 mins in presence of [gamma-33ATP] by scintillation counting based radiometry assay relative to control. Type of experiment: protein-complex assay.

The species entered for experiment [2] is Homo sapiens. The experiment is described as follows: Inhibition of recombinant full length human PRAK R291E mutant assessed as residual activity at 1 uM using KKLRRTLSVA as substrate measured after 40 mins in presence of [gamma33P]ATP by scintillation counting method relative to control.
In experiment [3] the target is Mitogen-activated protein kinase kinase kinase 20 (Homo sapiens) (UniProt Q9NYL2). Nature of the experiment: Inhibition of recombinant full-length human ZAK at 1 uM assessed as residual activity at 1 uM using MBP as substrate measured after 40 mins in presence of [gamma33P]ATP by scintillation counting method relative to control.
For experiment [4], the target named is Serine/threonine-protein kinase 17B (Homo sapiens) (UniProt O94768). Nature of the experiment: Inhibition of recombinant human DRAK2 assessed as residual activity at 1 uM using KKRPQRRYSNVF as substrate at 120 mins in presence of [gamma-33ATP] by scintillation counting based radiometry assay relative to control.
Experiment [5] deals with PI3K p110 beta/p85 alpha (Homo sapiens) (UniProt P27986+P42338). The experiment is described as follows: Inhibition of recombinant full-length human PI3K p110beta/p85alpha at 1 uM assessed as residual activity at 1 uM using phosphatidylinositol-4, 5-bisphosphate as substrate measured after 40 mins by fluorescence assay. Type of experiment: protein-complex assay.
Experiment [6] concerns the target Eukaryotic translation initiation factor 2-alpha kinase 1 (Homo sapiens) (UniProt Q9BQI3). Nature of the experiment: Inhibition of human HRI (140 to end residues) assessed as residual activity at 1 uM using RSRSRSRSRSRSRSR as substrate after 120 mins by [gamma-33ATP] radiometric assay relative to control.
Experiment [7] deals with Platelet-derived growth factor receptor alpha (Homo sapiens), P16234 [D842V]. Nature of the experiment: Inhibition of human PDGFRalpha D842V mutant (550 to end residues) assessed as residual activity at 1 uM using GGMEDIYFEFMGGKKK as substrate measured after 40 mins in presence of [gamma33P]ATP by scintillation counting method relative to control.
Experiment [8] deals with CDC7/Cyclin B1 (Homo sapiens) (UniProt P14635+O00311). Nature of the experiment: Inhibition of recombinant full length human CDC7/CyclinB1 assessed as residual activity at 1 uM using Histone H1 as substrate incubated for 120 mins in presence of [gamma-33ATP] by scintillation counting based radiometry assay relative to control. Type of experiment: protein-complex assay.
CDC7/Cyclin B1 (Homo sapiens), sequence (O00311 whole entry, looked up): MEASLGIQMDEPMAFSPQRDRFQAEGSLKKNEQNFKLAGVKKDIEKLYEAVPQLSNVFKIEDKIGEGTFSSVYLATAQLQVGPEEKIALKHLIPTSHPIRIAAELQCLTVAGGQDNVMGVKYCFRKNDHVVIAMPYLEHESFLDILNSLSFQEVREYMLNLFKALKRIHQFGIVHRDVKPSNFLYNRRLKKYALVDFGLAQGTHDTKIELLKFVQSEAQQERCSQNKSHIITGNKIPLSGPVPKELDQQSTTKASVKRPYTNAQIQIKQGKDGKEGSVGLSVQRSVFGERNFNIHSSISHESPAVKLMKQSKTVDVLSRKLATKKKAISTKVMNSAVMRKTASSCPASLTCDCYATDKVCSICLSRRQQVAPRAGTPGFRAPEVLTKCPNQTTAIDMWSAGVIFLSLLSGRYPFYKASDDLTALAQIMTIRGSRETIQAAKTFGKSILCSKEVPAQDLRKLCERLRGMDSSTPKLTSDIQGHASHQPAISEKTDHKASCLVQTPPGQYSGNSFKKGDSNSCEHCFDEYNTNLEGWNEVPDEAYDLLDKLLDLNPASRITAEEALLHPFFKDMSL
CDC7/Cyclin B1 (Homo sapiens), sequence (P14635 whole entry, looked up): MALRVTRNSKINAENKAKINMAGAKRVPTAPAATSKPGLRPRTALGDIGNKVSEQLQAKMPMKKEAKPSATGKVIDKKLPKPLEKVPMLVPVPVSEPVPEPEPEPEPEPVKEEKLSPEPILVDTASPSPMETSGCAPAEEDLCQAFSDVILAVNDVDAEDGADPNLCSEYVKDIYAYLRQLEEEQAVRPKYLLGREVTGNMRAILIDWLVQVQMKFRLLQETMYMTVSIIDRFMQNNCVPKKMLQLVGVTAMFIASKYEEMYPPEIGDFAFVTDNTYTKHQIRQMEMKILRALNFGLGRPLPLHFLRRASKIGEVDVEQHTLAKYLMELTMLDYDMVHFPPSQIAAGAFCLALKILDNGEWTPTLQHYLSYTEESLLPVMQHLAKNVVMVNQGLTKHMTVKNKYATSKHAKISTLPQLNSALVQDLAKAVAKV
The target of experiment [9] is Serine/threonine-protein kinase pim-1 (Homo sapiens) (UniProt P11309). Nature of the experiment: Inhibition of recombinant full length human Pim1 assessed as residual activity at 1 uM using KKRNRTLTV as substrate measured after 40 mins in presence of [gamma33P]ATP by scintillation counting method relative to control.
Serine/threonine-protein kinase pim-1 (Homo sapiens), sequence (P11309 whole entry, looked up): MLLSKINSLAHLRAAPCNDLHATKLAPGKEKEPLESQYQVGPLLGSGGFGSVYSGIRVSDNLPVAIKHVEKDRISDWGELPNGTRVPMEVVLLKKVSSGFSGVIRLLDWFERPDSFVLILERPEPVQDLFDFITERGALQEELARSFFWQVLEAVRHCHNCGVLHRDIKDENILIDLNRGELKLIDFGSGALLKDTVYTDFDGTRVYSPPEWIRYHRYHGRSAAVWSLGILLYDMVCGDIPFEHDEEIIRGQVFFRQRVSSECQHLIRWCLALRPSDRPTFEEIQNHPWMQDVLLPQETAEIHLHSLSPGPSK
The target of experiment [10] is Tyrosine-protein kinase TXK (Homo sapiens) (UniProt P42681). Nature of the experiment: Inhibition of human Txk (256 to end residues) assessed as residual activity at 1 uM using GEEPLYWSFPAKKK as substrate measured after 40 mins in presence of [gamma33P]ATP by scintillation counting method relative to control.
The target in experiment [11] is Phosphatidylinositol 5-phosphate 4-kinase type-2 alpha (Homo sapiens) (UniProt P48426). Nature of the experiment: Inhibition of recombinant full-length human PIP4K2alpha at 1 uM assessed as residual activity at 1 uM using phosphatidylinositol 5-phosphate as substrate measured after 40 mins by HTRF assay. (TR-FRET usually uses a lanthanide donor and a delayed reading to cut background.)

The target of experiment [12] is Tyrosine-protein kinase receptor TYRO3 (Homo sapiens) (UniProt Q06418). Nature of the experiment: Inhibition of recombinant human RSE (451 to end residues) assessed as residual activity at 1 uM using KVEKIGEGTYGVVYK as substrate measured after 40 mins in presence of [gamma33P]ATP by scintillation counting method relative to control.
Experiment [13] deals with Transcription initiation factor TFIID subunit 1-like (Homo sapiens) (UniProt Q8IZX4). The experiment is described as follows: Inhibition of human TAF1L (1428 to end residues) assessed as residual activity at 1 uM using RRRFRPASPLRGPPK as substrate measured after 120 mins in presence of [gamma33P]ATP by scintillation counting method relative to control.
Experiment [14] concerns Hepatocyte growth factor receptor (Homo sapiens), P08581 [D1228N]. The experiment is described as follows: Inhibition of recombinant human MET A1209G/V1290L/D1246N mutant (974 to end residues) assessed as residual activity at 1 uM using KKKGQEEEYVFIE as substrate incubated for 40 mins in presence of [gamma-33ATP by scintillation counting based radiometry assay relative to control.

Experiment [15] deals with SRSF protein kinase 2 (Homo sapiens) (UniProt P78362). Nature of the experiment: Inhibition of human SRPK2 (46 to end residues) assessed as residual activity at 1 uM using RSRSRSRSRSRSRSR as substrate measured after 40 mins in presence of [gamma33P]ATP by scintillation counting method relative to control.
SRSF protein kinase 2 (Homo sapiens), sequence (P78362 whole entry, looked up): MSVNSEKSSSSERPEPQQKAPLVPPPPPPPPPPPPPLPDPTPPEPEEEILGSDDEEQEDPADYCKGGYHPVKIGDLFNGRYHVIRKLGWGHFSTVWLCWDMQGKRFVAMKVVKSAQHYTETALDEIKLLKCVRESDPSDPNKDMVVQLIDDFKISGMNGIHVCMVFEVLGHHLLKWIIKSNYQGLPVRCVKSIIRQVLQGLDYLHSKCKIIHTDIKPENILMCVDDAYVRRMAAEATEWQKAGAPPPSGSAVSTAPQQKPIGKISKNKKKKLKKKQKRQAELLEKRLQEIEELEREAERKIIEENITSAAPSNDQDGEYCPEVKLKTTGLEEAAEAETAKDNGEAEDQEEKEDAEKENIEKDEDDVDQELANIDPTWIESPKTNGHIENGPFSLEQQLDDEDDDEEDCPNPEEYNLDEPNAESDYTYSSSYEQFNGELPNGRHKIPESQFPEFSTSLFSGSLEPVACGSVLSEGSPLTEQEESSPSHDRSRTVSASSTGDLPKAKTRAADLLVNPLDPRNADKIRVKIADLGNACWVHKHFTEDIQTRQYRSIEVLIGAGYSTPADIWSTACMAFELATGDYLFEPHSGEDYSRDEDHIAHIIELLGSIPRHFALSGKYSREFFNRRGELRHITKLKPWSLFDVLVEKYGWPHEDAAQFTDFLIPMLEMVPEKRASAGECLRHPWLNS
Experiment [16] concerns the target Dual specificity mitogen-activated protein kinase kinase 1 (Homo sapiens) (UniProt Q02750). Nature of the experiment: Inhibition of recombinant human MEK1 assessed as residual activity at 1 uM using inactive MAPK2 as substrate incubated for 40 mins in presence of [gamma-33ATP by scintillation counting based radiometry assay relative to control.
Experiment [17] concerns the target Phosphatidylinositol 4-phosphate 3-kinase C2 domain-containing subunit alpha (Homo sapiens) (UniProt O00443). Nature of the experiment: Inhibition of recombinant human PI3KC2alpha (299 to end residues) at 1 uM assessed as residual activity at 1 uM using phosphatidylinositol as substrate measured after 40 mins by HTRF assay.
Experiment [18] addresses Interleukin-1 receptor-associated kinase 1 (Homo sapiens) (UniProt P51617). The experiment is described as follows: Inhibition of human IRAK1 (194 to end residues) assessed as residual activity at 1 uM using myelin basic protein as substrate after 40 mins by [gamma-33ATP] radiometric assay relative to control.
Experiment [19] addresses Mast/stem cell growth factor receptor Kit (Homo sapiens) (UniProt P10721). The experiment is described as follows: Inhibition of recombinant human c-Kit (544 to end residues) assessed as residual activity at 1 uM using poly(Glu, Tyr) 4:1 as substrate measured after 40 mins in presence of [gamma33P]ATP by scintillation counting method.
Experiment [20] addresses Insulin-like growth factor 1 receptor (Homo sapiens) (UniProt P08069). Nature of the experiment: Inhibition of human IGF1R (959 to end residues) assessed as residual activity at 1 uM using KKKSPGEYVNIEFG as substrate after 40 mins by [gamma-33ATP] radiometric assay relative to control.
The target in experiment [21] is Inhibitor of nuclear factor kappa-B kinase subunit epsilon (Homo sapiens) (UniProt Q14164). Nature of the experiment: Inhibition of full length human IKKepsilon assessed as residual activity at 1 uM using casein as substrate after 40 mins by [gamma-33ATP] radiometric assay relative to control.
Experiment [22] addresses cGMP-dependent protein kinase 2 (Homo sapiens) (UniProt Q13237). The experiment is described as follows: Inhibition of recombinant full-length human PRKG2 assessed as residual activity at 1 uM using KKLRRTLSFAEPG as substrate measured after 40 mins in presence of [gamma33P]ATP by scintillation counting method relative to control.

Dual specificity mitogen-activated protein kinase kinase 1 (Homo sapiens), sequence (Q02750 whole entry, the tested form may be a part): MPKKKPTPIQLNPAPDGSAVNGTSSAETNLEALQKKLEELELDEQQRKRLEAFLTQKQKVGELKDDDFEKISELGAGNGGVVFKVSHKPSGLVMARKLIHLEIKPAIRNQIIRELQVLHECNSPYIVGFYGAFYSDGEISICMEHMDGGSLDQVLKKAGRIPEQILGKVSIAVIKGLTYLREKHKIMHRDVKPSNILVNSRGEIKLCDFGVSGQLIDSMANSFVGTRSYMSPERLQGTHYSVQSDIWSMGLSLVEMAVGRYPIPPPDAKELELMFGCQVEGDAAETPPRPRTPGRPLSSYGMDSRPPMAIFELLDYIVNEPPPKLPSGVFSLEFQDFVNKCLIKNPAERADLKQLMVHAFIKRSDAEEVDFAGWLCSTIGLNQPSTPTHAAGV
Mast/stem cell growth factor receptor Kit (Homo sapiens), sequence (P10721 whole entry): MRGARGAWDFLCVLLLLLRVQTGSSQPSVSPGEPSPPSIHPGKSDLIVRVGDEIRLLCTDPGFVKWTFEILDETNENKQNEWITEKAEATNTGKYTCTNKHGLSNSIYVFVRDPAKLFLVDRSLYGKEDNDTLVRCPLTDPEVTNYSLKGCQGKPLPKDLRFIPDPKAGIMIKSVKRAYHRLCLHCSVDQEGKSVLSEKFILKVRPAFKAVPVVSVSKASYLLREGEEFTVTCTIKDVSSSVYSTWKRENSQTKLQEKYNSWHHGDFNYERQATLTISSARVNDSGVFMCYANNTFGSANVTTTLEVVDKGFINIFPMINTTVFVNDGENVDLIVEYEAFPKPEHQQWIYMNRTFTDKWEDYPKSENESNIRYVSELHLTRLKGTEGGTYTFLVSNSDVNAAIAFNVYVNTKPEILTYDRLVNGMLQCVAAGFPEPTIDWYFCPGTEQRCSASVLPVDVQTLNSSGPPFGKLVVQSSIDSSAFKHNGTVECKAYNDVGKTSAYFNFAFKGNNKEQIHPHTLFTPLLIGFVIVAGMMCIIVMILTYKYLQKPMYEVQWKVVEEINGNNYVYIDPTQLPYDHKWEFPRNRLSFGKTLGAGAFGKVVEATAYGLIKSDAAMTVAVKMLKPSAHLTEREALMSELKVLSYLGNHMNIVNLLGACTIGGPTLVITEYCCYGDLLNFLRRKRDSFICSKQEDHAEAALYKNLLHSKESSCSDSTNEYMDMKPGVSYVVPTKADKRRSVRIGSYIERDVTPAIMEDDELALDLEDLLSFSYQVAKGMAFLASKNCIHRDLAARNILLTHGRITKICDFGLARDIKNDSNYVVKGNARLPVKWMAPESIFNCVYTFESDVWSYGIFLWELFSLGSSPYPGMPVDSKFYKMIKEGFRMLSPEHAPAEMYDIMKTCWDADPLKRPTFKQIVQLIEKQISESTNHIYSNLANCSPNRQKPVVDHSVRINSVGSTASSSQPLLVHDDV
Phosphatidylinositol 4-phosphate 3-kinase C2 domain-containing subunit alpha (Homo sapiens), sequence (O00443 whole entry, the tested form may be a part): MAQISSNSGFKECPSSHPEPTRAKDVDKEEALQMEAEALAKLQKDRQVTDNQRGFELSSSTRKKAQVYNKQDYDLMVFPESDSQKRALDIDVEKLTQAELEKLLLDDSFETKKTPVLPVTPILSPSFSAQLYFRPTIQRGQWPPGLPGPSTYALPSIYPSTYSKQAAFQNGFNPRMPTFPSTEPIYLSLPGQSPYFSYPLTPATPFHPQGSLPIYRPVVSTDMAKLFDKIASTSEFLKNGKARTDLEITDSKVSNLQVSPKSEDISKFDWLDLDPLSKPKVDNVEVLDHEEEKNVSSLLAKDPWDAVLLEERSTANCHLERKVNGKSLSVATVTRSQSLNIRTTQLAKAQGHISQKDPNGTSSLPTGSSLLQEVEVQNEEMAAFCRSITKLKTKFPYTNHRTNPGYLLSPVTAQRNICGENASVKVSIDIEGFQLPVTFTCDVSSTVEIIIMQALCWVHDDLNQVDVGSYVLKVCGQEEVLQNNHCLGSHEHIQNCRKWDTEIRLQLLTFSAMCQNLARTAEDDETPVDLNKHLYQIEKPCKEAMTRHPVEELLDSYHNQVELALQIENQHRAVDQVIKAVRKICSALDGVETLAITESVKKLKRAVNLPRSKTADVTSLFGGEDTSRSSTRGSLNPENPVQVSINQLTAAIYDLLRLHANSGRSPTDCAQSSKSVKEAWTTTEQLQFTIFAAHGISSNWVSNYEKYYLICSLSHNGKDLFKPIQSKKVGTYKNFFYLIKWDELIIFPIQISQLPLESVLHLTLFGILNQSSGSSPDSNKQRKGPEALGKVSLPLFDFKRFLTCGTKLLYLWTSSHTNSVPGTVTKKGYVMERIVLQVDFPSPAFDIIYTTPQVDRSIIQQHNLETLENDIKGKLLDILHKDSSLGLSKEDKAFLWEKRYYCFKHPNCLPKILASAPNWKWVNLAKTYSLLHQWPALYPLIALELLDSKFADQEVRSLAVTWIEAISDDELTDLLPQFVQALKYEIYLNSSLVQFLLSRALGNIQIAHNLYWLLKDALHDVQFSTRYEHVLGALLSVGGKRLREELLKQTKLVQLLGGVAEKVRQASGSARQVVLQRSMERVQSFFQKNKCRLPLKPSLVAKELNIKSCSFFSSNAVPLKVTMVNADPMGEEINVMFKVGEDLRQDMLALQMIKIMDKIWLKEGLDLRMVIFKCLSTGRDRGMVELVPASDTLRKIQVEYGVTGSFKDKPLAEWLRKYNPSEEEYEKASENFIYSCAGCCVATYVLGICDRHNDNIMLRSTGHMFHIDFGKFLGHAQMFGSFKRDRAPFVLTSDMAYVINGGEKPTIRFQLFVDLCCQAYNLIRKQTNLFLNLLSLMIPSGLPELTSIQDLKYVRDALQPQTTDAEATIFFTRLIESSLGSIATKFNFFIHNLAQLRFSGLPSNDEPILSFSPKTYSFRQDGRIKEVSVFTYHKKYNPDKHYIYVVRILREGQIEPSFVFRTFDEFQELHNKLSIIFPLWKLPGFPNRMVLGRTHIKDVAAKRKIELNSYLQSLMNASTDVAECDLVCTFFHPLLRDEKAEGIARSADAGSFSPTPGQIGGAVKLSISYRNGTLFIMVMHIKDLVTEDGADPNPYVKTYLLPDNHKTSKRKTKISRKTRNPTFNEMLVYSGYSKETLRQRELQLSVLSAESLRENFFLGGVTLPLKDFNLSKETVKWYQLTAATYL

For `C=CCOC(=O)c1cc(-c2ccc(/C=C3/NC(=S)NC3=O)o2)ccc1Cl`, the Activity in experiment [1] turned out to be 98%; in experiment [2], 82%; in experiment [3] it was 115%; in [4], 80%; in [5], 97%; in experiment [6], 101%. Besides, the Activity in experiment [7] was 100%; in experiment [8], 93%; in experiment [9] it was 21%; in experiment [10], 104%; in [11], 98%; in [12] it was 100%. In addition, the Activity in experiment [13] came to 66%; in experiment [14], 114%; in [15] it was 99%; in experiment [16] it was 96%; in [17] it was 87%; in [18] it was 90%. The Activity in experiment [19] worked out at 101%; in experiment [20], 88%; in experiment [21], 98%; in experiment [22], 94%.

`N=C1NC(=O)/C(=C\c2ccc(-c3cccc([N+](=O)[O-])c3)o2)S1`: the Activity in experiment [1] was determined as 87%; in experiment [2], 71%; in experiment [3], 114%; in experiment [4], 59%; in experiment [5], 99%; in experiment [6], 96%. Moreover, the Activity was found to be 97% in experiment [7]; 82% in experiment [8]; 9% in experiment [9]; 100% in experiment [10]; 99% in experiment [11]; 110% in [12]. Further, the Activity in experiment [13] turned out to be 51%; in [14], 105%; in experiment [15], 82%; in experiment [16] it was 88%; in experiment [17], 100%; in experiment [18], 100%. For the same molecule, the Activity in [19] was 112%; in experiment [20], 108%; in experiment [21] it was 100%; in experiment [22], 51%.
